# Measurements published in patent publication US7902373B2 (Pfizer Inc, priority 2006, dated 2011).
# pIC50: −log10 of the molar value.
# Molecular target: human recombinant H-PGDS (Homo sapiens, UniProt O60760)
# Assay: Fluorescence intensity h-PGDS TBA enzyme assay
# Assay type: biochemical
# Details: Examples up to 622 (and 3a, 3b)
# Sequence of human recombinant H-PGDS (O60760 whole entry): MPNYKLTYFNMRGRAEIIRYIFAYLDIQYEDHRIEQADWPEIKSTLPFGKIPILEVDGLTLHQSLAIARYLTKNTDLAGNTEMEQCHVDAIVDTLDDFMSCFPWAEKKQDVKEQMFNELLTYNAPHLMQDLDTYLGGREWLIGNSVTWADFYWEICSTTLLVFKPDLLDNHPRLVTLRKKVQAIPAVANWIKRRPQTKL
row,pIC50,Structure (SMILES)
1,9.11,"Cc1ccc(-c2n[nH]cc2CN2CCC(NC(=O)c3ccc(-c4cccc(F)c4)nc3)CC2)cc1 [Example 307, 6-(3-Fluorophenyl)-N-(1-{[3-(4-methylphenyl)-1H-pyrazol-4-yl]methyl}piperidin-4-yl)nicotinamide]"
2,8.69,"N#Cc1ccc(Oc2ccc(CN3CCC(NC(=O)c4ccc(-c5cccc(F)c5)nc4)CC3)cn2)cc1 [Example 308, N-(1-{[6-(4-Cyanophenoxy)pyridin-3-yl]methyl}piperidin-4-yl)-6-(3-fluorophenyl)nicotinamide]"
3,8.36,"O=C(NC1CCN(CC2=C(Cl)c3cc(F)ccc3OC2)CC1)c1ccc(-c2cccc(F)c2)nc1 [Example 309, N-(1-[(4-Chloro-6-fluoro-2H-chromen-3-yl)methyl]piperidin-4-yl)-6-(3-fluorophenyl)nicotinamide]"
4,8.32,"O=C(NC1CCN(Cc2cc(=O)[nH]c(=O)[nH]2)CC1)c1ccc(-c2cccc(F)c2)nc1 [Example 310, N-{1-[(2,6-Dioxo-1,2,3,6-tetrahydropyrimidin-4-yl)methyl]piperidin-4-yl)-6-(3-fluorophenyl)nicotinamide]"
5,8.76,"COC(=O)c1ccc2[nH]cc(CN3CCC(NC(=O)c4ccc(-c5cccc(F)c5)nc4)CC3)c2c1 [Example 311, Methyl 3-{[4-({[6-(3-fluorophenyl)pyridin-3-yl]carbonyl}amino)piperidin-1-yl]methyl}-1H-indole-5-carboxylate]"
6,8.97,"O=C(NC1CCN(CCCC(F)(F)F)CC1)c1ccc(-c2cccc(F)c2)nc1 [Example 312, 6-(3-Fluorophenyl)-N-[1-(4,4,4-trifluorobutyl)piperidin-4-yl]nicotinamide]"
7,8.67,"O=C(NC1CCN(Cc2ccc3c(c2)CCO3)CC1)c1ccc(-c2cccc(F)c2)nc1 [Example 313, N-[1-(2,3-Dihydro-1-benzofuran-5-ylmethyl)piperidin-4-yl]-6-(3-fluorophenyl)nicotinamide]"
8,9.62,"Cn1nc(C(F)(F)F)c(CN2CCC(NC(=O)c3ccc(-c4cccc(F)c4)nc3)CC2)c1Cl [Example 314, N-(1-{[5-Chloro-1-methyl-3-(trifluoromethyl)-1H-pyrazol-4-yl]methyl}piperidin-4-yl)-6-(3-fluorophenyl)nicotinamide]"
9,9.26,"O=C(NC1CCN(Cc2cccc(OC(F)F)c2)CC1)c1ccc(-c2cccc(F)c2)nc1 [Example 315, N-{1-[3-(Difluoromethoxy)benzyl]piperidin-4-yl}-6-(3-fluorophenyl)nicotinamide]"
10,8.87,"CCOc1c(CN2CCC(NC(=O)c3ccc(-c4cccc(F)c4)nc3)CC2)cccc1OC [Example 316, N-[1-(2-Ethoxy-3-methoxybenzyl)piperidin-4-yl]-6-(3-fluorophenyl)nicotinamide]"
11,8.68,"O=C(NC1CCN(Cc2ccc(C(F)(F)F)nc2)CC1)c1ccc(-c2cccc(F)c2)nc1 [Example 317, 6-(3-Fluorophenyl)-N-(1-{[6-(trifluoromethyl)pyridin-3-yl]methyl}piperidin-4-yl)nicotinamide]"
12,8.93,"Cc1ccc(CN2CCC(NC(=O)c3ccc(-c4cccc(F)c4)nc3)CC2)c(F)c1F [Example 318, N-[1-(2,3-Difluoro-4-methylbenzyl)piperidin-4-yl]-6-(3-fluorophenyl)nicotinamide]"
13,9.42,"Cc1nn(C)c(Cl)c1CN1CCC(NC(=O)c2ccc(-c3cccc(F)c3)nc2)CC1 [Example 319, N-{1-[(5-Chloro-1,3-dimethyl-1H-pyrazol-4-yl)methyl]piperidin-4-yl}-6-(3-fluorophenyl)nicotinamide]"
14,8.63,"O=C(NC1CCN(Cc2c[nH]c(-c3ccccc3)n2)CC1)c1ccc(-c2cccc(F)c2)nc1 [Example 320, 6-(3-Fluorophenyl)-N-{1-[(2-phenyl-1H-imidazol-4-yl)methyl]piperidin-4-yl}nicotinamide]"
15,9.44,"Cn1cc(Br)c(CN2CCC(NC(=O)c3ccc(-c4cccc(F)c4)nc3)CC2)n1 [Example 321, N-{1-[(4-Bromo-1-methyl-1H-pyrazol-3-yl)methyl]piperidin-4-yl}-6-(3-fluorophenyl)nicotinamide]"
16,9.13,"COc1ccc(CCCN2CCC(NC(=O)c3ccc(-c4cccc(F)c4)nc3)CC2)cc1 [Example 322, 6-(3-Fluorophenyl)-N-{1-[3-(4-methoxyphenyl)propyl]piperidin-4-yl}nicotinamide]"
17,9.21,"COc1ccc(F)c(CN2CCC(NC(=O)c3ccc(-c4cccc(F)c4)nc3)CC2)c1 [Example 323, N-[1-(2-Fluoro-5-methoxybenzyl)piperidin-4-yl]-6-(3-fluorophenyl)nicotinamide]"
18,9.27,"COc1ccc(CN2CCC(NC(=O)c3ccc(-c4cccc(F)c4)nc3)CC2)c(F)c1 [Example 324, N-[1-(2-Fluoro-4-methoxybenzyl)piperidin-4-yl]-6-(3-fluorophenyl)nicotinamide]"
19,8.40,"CCCCCN1CCC(NC(=O)c2ccc(-c3cccc(F)c3)nc2)CC1 [Example 325, 6-(3-Fluorophenyl)-N-(1-pentylpiperidin-4-yl)nicotinamide]"
20,8.61,"CC(C)Oc1ccccc1CN1CCC(NC(=O)c2ccc(-c3cccc(F)c3)nc2)CC1 [Example 326, 6-(3-Fluorophenyl)-N-[1-(2-isopropoxybenzyl)piperidin-4-yl]nicotinamide]"
21,8.81,"COCc1cc(CN2CCC(NC(=O)c3ccc(-c4cccc(F)c4)nc3)CC2)ccc1OC [Example 327, 6-(3-Fluorophenyl)-N-{1-[4-methoxy-3-(methoxymethyl)benzyl]piperidin-4-yl}nicotinamide]"
22,9.25,"Cc1nn(C)cc1CN1CCC(NC(=O)c2ccc(-c3cccc(F)c3)nc2)CC1 [Example 328, N-{1-[(1,3-Dimethyl-1H-pyrazol-4-yl)methyl]piperidin-4-yl}-6-(3-fluorophenyl)nicotinamide]"
23,8.71,"CCn1ncc(CN2CCC(NC(=O)c3ccc(-c4cccc(F)c4)nc3)CC2)c1C [Example 329, N-{1-[(1-Ethyl-5-methyl-1H-pyrazol-4-yl)methyl]piperidin-4-yl}-6-(3-fluorophenyl)nicotinamide]"
24,8.77,"O=C(NC1CCN(Cc2ccc(-c3ncccn3)cc2)CC1)c1ccc(-c2cccc(F)c2)nc1 [Example 330, 6-(3-Fluorophenyl)-N-[1-(4-pyrimidin-2-ylbenzyl)piperidin-4-yl]nicotinamide]"
25,8.57,"O=C(NC1CCN(Cc2cc(F)cc(F)c2F)CC1)c1ccc(-c2cccc(F)c2)nc1 [Example 331, 6-(3-Fluorophenyl)-N-[1-(2,3,5-trifluorobenzyl)piperidin-4-yl]nicotinamide]"
26,8.92,"O=C(NC1CCN(Cc2cc(F)c(F)c(F)c2)CC1)c1ccc(-c2cccc(F)c2)nc1 [Example 332, 6-(3-fluorophenyl)-N-[1-(345-trifluorobenzyl)piperidin-4-yl]nicotinamide]"
27,8.98,"CC(C)(C)OC(=O)N1CCCC(CN2CCC(NC(=O)c3ccc(-c4cccc(F)c4)nc3)CC2)C1 (stereo not shown) [Example 333, tert-Butyl 3-{[4-({[6-(3-fluorophenyl)pyridin-3-yl]carbonyl}amino)piperidin-1-yl]methyl}piperidine-1-carboxylate]"
28,8.56,"CC(C)(C)OC(=O)NC1(CN2CCC(NC(=O)c3ccc(-c4cccc(F)c4)nc3)CC2)CCC1 [Example 334, tert-Butyl (1-{[4-({[6-(3-fluorophenyl)pyridin-3-yl]carbonyl}amino)piperidin-1-yl]methyl}cyclobutyl)carbamate]"
